From patent publication US12303484B2, “Method of treating cancer” (University of Louisiana at Lafayette, priority 2019, dated 2025)
Where two headings read alike, the source gives them in different places.

What was measured:
[1] = tested on: NCI-H522 Lung Cancer cell line; assay: MTT cell proliferation / cytotoxicity assay, NCI-H522; format: cell-based, human; conditions: for ED50 (in words): NCI-H522, MTT assay; for EC50: MTT, read-out: Effective Dose 50 (ED50)
Procedure: (§1) Examples measuring the effectiveness of mer-[RuCl3(DMSO)(dmpyz)2 in treating two lines of cancer cells is presented herein. Lung Cancer Cell lines NCI-H522 and NCI-H23 from ATCC were grown in RPMI (growth medium) supplemented with 10% heat inactivated fetal bovine serum (FBS) along with penicillin and streptomycin. All cells were grown at humidified, carbon dioxide enriched atmosphere (+37° C. with 5% CO2).
(§2) NCI-H522 cells were seeded at 50,000 cells/well and NCI-H23 at 30,000cells/well in a 96-well microtiter plate in RPMI with 10% FBS. Cells were incubated at humidified atmosphere (+37° C. with 5% CO2) for overnight attachment. A mer-[RuCl3(DMSO)(dmpyz)2 drug along with the positive control drug Doxorubicin were used in following concentrations (100 μM, 33 μM, 11 μM, 3.7 μM, 1.2 μM, 0.4 μM per well of cells) and added in triplicates and incubated for 3 time durations (24 hrs,48 hrs,72 hrs) at humidified atmosphere (37° C. with 5% CO2). Thereafter the cells were treated with 10 μl (final concentration 0.5 mg/ml) 3-(4,5-dimethylthiazol-2-yl)- 2,5-diphenyltetrazolium bromide (MTT, see Cell Proliferation Kit I MTT Roche: Cat No: 11465007001). The microplate were incubated for 4 hours in a humidified atmosphere (+37° C., 5% CO2). Four hours later 100 μl of solubilization solution (from Roche MTT kit) was added into each well. The plate were allowed to stand overnight in the incubator in a humidified atmosphere (+37° C., 5% CO2). The complete solubilization of the purple formazan crystals was check for and measure the absorbance of the samples using a microplate (ELISA) reader. The wavelength was measure for absorbance of the formazan product at 562 nm the reference wavelength used was 630 nm. Percentage viable cells were calculated as below. % viable cells=(ab of sample-ab of blank/ab control-ab blank) X100 % cytotoxicity or % inhibition=100−% viable cells
(§3) The Effective Dose 50 (ED50) was extrapolated from the dose-response graph. The drug concentration that reduced the viability of the cells by 50% (ED50) was determined by plotting data points over a concentration range and calculating values using PRISM program.
(§4) The MTT assay is used to measure cellular metabolic activity as an indicator of cell viability, proliferation and cytotoxicity. This colorimetric assay is based on the reduction of a yellow tetrazolium salt (3-(4,5-dimethylthiazol-2-yl)-2,5-diphenyltetrazolium bromide or MTT) to purple formazan crystals by metabolically active cells. Viable cells produce enzymes that convert yellow MTT to insoluble purple formazan. The more viable cells present in a sample, the more intense the purple color. This test is widely used in the in vitro evaluation of cytotoxic potency of drugs. In the present study we applied the MTT assay to evaluate the potency of mer-[RuC3(DMSO)(dmpyz)2 anti-cancer drug in various human lung cancer cell lines.

[2] = tested on: NCI-H23 Lung Cancer cell line; assay: MTT cell proliferation / cytotoxicity assay, NCI-H23; format: cell-based, human; conditions: for ED50 (in words): NCI-H23, MTT assay; for EC50: MTT, read-out: Effective Dose 50 (ED50)
Procedure: as §1, §2, §3, §4

H522 cell lines (NSCLC) = assay: Ruthenium complex screening against cancer subtypes (FIG. 3); format: cell-based
Description: Still, preliminary tests show promise that dosage of RuCl3(DMSO)(dmPyz)2 is effective against NSCLC subtypes. FIG. 3 is a table showing the results of Ruthenium complex screening conducted to test the efficacy of the current Ruthenium (III) complexes to various cancer subtypes.

Molecule	ED50 (in words) [1]	ED50 (in words) [2]	cytotoxic response ([1]; H522 cell lines, 33 μM concentration)	EC50 ([1]; NCI-H522, 24 hrs treatment)	EC50 ([1]; NCI-H522, 48 hrs treatment)	EC50 ([1]; NCI-H522, 72 hrs treatment)	cell viability ([1]; NCI-H522, drug concentration 33 μM or more)	IC50 (H522 cell lines (NSCLC); suggested from 97% inhibition at 10 micromole)	inhibition of NSCLC (H522 cell lines (NSCLC); treatment of 10 micromole (M) purified, preliminary tests)	cytotoxic response ([2]; H23 cell lines, 100 μM concentration)	EC50 ([2]; NCI-H23, 24 hrs treatment)	EC50 ([2]; NCI-H23, 48 hrs treatment)	EC50 ([2]; NCI-H23, 72 hrs treatment)	cell viability ([2]; NCI-H23, drug concentration 100 μM)
COc1cccc2c1C(=O)c1c(O)c3c(c(O)c1C2=O)C[C@@](O)(C(=O)CO)C[C@@H]3O[C@H]1C[C@H](N)[C@H](O)[C@H](C)O1 [doxorubicin, Doxorubicin, reference compound]	comparable to published data	comparable to published data	–	–	–	–	–	–	–	–	–	–	–	–
mer-[RuCl3(DMSO)(dmpyz)2	modest micromolar	modest micromolar	highly toxic	82.1 µM	11.7 µM	12.5 µM	reduces to zero	< 10 µM	97%	highly toxic	81.1 µM	77.4 µM	59.4 µM	reduces to zero
